Values quoted from earlier work, collected in patent US20050227998A1, “Compositions and methods of decreasing nicotine withdrawal” (priority 2004, published 2005).

Tested on: monkeys

## CN1[C@@H]2C[C@@H](OC(=O)[C@H](CO)c3ccccc3)C[C@H]1[C@@H]1O[C@@H]12 [scopolamine, Scopolamine]
  smoking patterns: decreased
